pEC50: −log10 of the molar value. Several values for one entry are separate records, joined by “and”; a condition that tells them apart may be missing. Equal entries are not always repeated.
Assays:
[1] = system: MDCK cells co-expressing GFP-K-RASG12V and mCherry-CAAX; assay: Cytotoxicity in mislocalization screen (death of all cells in well); conditions: drug caused death of all cells in well at 30 μM
[2] = molecular target: mGFP-K-RASG12V (Homo sapiens (Human), UniProt P01116, G12V); assay: K-Ras mislocalization assay (confocal microscopy, Manders coefficient); format: cell-based; set-up: key to Emax: Manders coefficient: fraction of mCherry-CAAX co-localizing with GFP-K-Ras; conditions: for IC50 / Emax / pEC50: MDCK cells; for IC50: 48 h treatment, read-out: IC50 (μM), KRASG12V mislocalization; for Emax: maximal effect, Manders coefficient; for Emax / pEC50: 48 h; for pEC50: batch 4 compounds, title calls it IC50, read-out: EC50
Method in brief: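 MDCK cells stably co-expressing mGFP-K-RASG12V and mCherry-CAAX (endomembrane marker) treated with compound or 0.1% DMSO for 48 h, fixed in 4% paraformaldehyde, imaged by confocal microscopy. Mislocalization quantified as the fraction of mCherry-CAAX co-localizing with mGFP-K-RASG12V (Manders coefficient) after 8-bit thresholding.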

COc1ccc([C@@H](C)N(CC=C(c2ccccc2)c2ccccc2)CC(=O)N2CCc3ccccc3C2)cc1 [NY0233, (R)-1-(3,4-dihydroisoquinolin-2(1H)-yl)-2-((3,3-diphenylallyl)(1-(4-methoxyphenyl)ethyl)amino)ethanone]
Cytotoxic at 30 μM [1]: No
IC50 [2]: 3.56 µM
Emax [2]: 0.522

Fc1ccc2c(c1)CCCN2CC=C(c1ccccc1)c1ccccc1 [NY293, 1-(3,3-diphenylallyl)-6-fluoro-1,2,3,4-tetrahydroquinoline]
Cytotoxic at 30 μM [1]: No
IC50 [2]: 2.3 µM
Emax [2]: 0.910

C(CN1CCC(c2ccccc2)CC1)=C(c1ccccc1)c1ccccc1 [NY306, 1-(3,3-diphenylallyl)-4-phenylpiperidine]
Cytotoxic at 30 μM [1]: No
IC50 [2]: 3.95 µM
Emax [2]: 0.893

COc1ccc([C@@H](C)N(CC=C(c2ccccc2)c2ccccc2)CC(=O)N2CCN(C)CC2)cc1 [NY0232, (R)-2-((3,3-diphenylallyl)(1-(4-methoxyphenyl)ethyl)amino)-1-(4-methylpiperazin-1-yl)ethanone]
Cytotoxic at 30 μM [1]: No
IC50 [2]: 1.1 µM
Emax [2]: 0.73 ± 0.02

COc1ccc(/C(=C\CN(CCN2CCCC2)[C@H](C)c2ccc(F)cc2)c2ccccc2)cc1 [PW460, (R,Z)-N-(1-(4-fluorophenyl)ethyl)-3-(4-methoxyphenyl)-3-phenyl-N-(2-(pyrrolidin-1-yl)ethyl)prop-2-en-1-amine]
Cytotoxic at 30 μM [1]: Yes at 10 uM
IC50 [2]: 2.02 µM
Emax [2]: 0.801

O=C(Nc1ccc(F)cc1)N(CC=C(c1ccccc1)c1ccccc1)CCN1CCCC1 [PW279, 1-(3,3-diphenylallyl)-3-(4-fluorophenyl)-1-(2-(pyrrolidin-1-yl)ethyl)urea]
Cytotoxic at 30 μM [1]: Yes
IC50 [2]: 3.4 µM
Emax [2]: 0.608

C[C@@H](NCCN1c2ccccc2CCc2ccccc21)c1ccccc1 [NY0553, (R)-2-(10,11-dihydro-5H-dibenzo[b,f]azepin-5-yl)-N-(1-phenylethyl)ethan-1-amine]
Cytotoxic at 30 μM [1]: No
Emax [2]: 0.452

C[C@@H](NCC(=O)N1c2ccccc2CCc2ccccc21)c1ccc(F)cc1 [NY0583, (R)-1-(10,11-dihydro-5H-dibenzo[b,f]azepin-5-yl)-2-((1-(4-fluorophenyl)ethyl)amino)ethan-1-one]
Cytotoxic at 30 μM [1]: No
pEC50 [2]: 5.41
Emax [2]: 0.725

O=C(/C=C/c1ccccc1)N(CC=C(c1ccccc1)c1ccccc1)CCN1CCCC1 [PW284, N-(3,3-diphenylallyl)-N-(2-(pyrrolidin-1-yl)ethyl)cinnamamide]
Cytotoxic at 30 μM [1]: Yes
Emax [2]: 0.549

COc1ccc([C@@H](C)N(CC=C(c2ccccc2)c2ccccc2)C(=O)CN2CCCC2)cc1 [PW124, (R)-N-(3,3-diphenylallyl)-N-(1-(4-methoxyphenyl)ethyl)-2-(pyrrolidin-1-yl)acetamide]
Cytotoxic at 30 μM [1]: Yes
IC50 [2]: 0.553 µM
Emax [2]: 0.452

COc1ccc([C@@H](C)N(CC=C(c2ccccc2)c2ccccc2)CCF)cc1 [NY315, (R)-N-(2-fluoroethyl)-N-(1-(4-methoxyphenyl)ethyl)-3,3-diphenylprop-2-en-1-amine]
Cytotoxic at 30 μM [1]: No
IC50 [2]: 10.1 µM
fold loss of potency to mislocalize KRAS ([2]; in comparison with 7): 20 fold
Emax [2]: 0.52 ± 0.04

CCCN1CCN(CCN(CC=C(c2ccccc2)c2ccccc2)[C@H](C)c2ccc(OC)cc2)CC1 [NY0594, (R)-N-(2-(4-propylpiperazin-1-yl)ethyl)-N-(1-(4-methoxyphenyl)ethyl)-3,3-diphenylprop-2-en-1-amine]
Cytotoxic at 30 μM [1]: Yes
pEC50 [2]: 5.49
Emax [2]: 0.75

COc1ccc([C@H](C)N(CC=C(c2ccccc2)c2ccccc2)CCN(C)C)cc1 [NY0434]
Cytotoxic at 30 μM [1]: No
IC50 [2]: 4.69 µM
Emax [2]: 0.835

CC1CCc2ccccc2N1CC=C(c1ccccc1)c1ccccc1 (stereo not shown) [NY304, 1-(3,3-diphenylallyl)-2-methyl-1,2,3,4-tetrahydroquinoline]
Cytotoxic at 30 μM [1]: No
IC50 [2]: 2.95 µM
Emax [2]: 0.751

COc1ccc([C@@H](C)N(CC=C(c2ccccc2)c2ccccc2)C(=O)Oc2ccccc2)cc1 [NY0225, (R)-phenyl (3,3-diphenylallyl)(1-(4-methoxyphenyl)ethyl)carbamate]
Cytotoxic at 30 μM [1]: Yes
IC50 [2]: 0.43 µM
Emax [2]: 0.626

C(CN(CCN1CCCC1)[C@@H]1C[C@H]1c1ccccc1)=C(c1ccccc1)c1ccccc1 [NY0592, (1R,2S)-N-(3,3-diphenylallyl)-2-phenyl-N-(2-(pyrrolidin-1-yl)ethyl)cyclopropan-1-amine]
Cytotoxic at 30 μM [1]: Yes
pEC50 [2]: 5.25
Emax [2]: 0.685

COc1ccc([C@@H](C)N(CC=C(c2ccccc2)c2ccccc2)CCN2CCN(CC(C)C)CC2)cc1 [NY0372, (R)-N-(2-(4-isobutylpiperazin-1-yl)ethyl)-N-(1-(4-methoxyphenyl)ethyl)-3,3-diphenylprop-2-en-1-amine]
Cytotoxic at 30 μM [1]: No
IC50 [2]: 16.4 µM
Emax [2]: 0.868

C[C@H](c1ccc(F)cc1)N(CCN1CCCC1)C(=O)Nc1ccc(C(F)(F)F)cc1 [PW321, (R)-1-(1-(4-Fluorophenyl)ethyl)-1-(2-(pyrrolidin-1-yl)ethyl)-3-(4-(trifluoromethyl)phenyl)urea]
Cytotoxic at 30 μM [1]: No
Emax [2]: 0.587

C(CN1CCCc2ccccc21)=C(c1ccccc1)c1ccccc1 [NY0237, 1-(3,3-diphenylallyl)-1,2,3,4-tetrahydroquinoline]
Cytotoxic at 30 μM [1]: No
IC50 [2]: 12.2 µM
Emax [2]: 0.79

COC(=O)c1cn(CCN(CC=C(c2ccccc2)c2ccccc2)[C@H](C)c2ccc(F)cc2)nn1 [PW307, methyl (R)-1-(2-((3,3-diphenylallyl)(1-(4-fluorophenyl)ethyl)amino)ethyl)-1H-1,2,3-triazole-4-carboxylate]
Cytotoxic at 30 μM [1]: No
Emax [2]: 0.628

COc1ccc([C@@H](C)N(CC=C(c2ccccc2)c2ccccc2)CCN2CCN(C(=O)OC(C)(C)C)CC2)cc1 [NY345, (R)-tert-butyl 4-(2-((3,3-diphenylallyl)(1-(4-methoxyphenyl)ethyl)amino)ethyl) piperazine-1-carboxylate]
Cytotoxic at 30 μM [1]: No
IC50 [2]: 0.329 µM
Emax [2]: 0.819

C=CC(=O)N(CC=C(c1ccccc1)c1ccccc1)[C@H](C)c1ccc(OC)cc1 [NY0235, (R)-N-(3,3-diphenylallyl)-N-(1-(4-methoxyphenyl)ethyl)acrylamide]
Cytotoxic at 30 μM [1]: No
IC50 [2]: 1.21 µM
Emax [2]: 0.59

COc1ccc([C@@H](C)N(CC=C(c2ccccc2)c2ccccc2)CCCC=O)cc1 [NY0445, (R)-4-((3,3-diphenylallyl)(1-(4-methoxyphenyl)ethyl)amino)butanal]
Cytotoxic at 30 μM [1]: No
IC50 [2]: 2.02 µM
Emax [2]: 0.694

COc1cccc(C(=CCN(CCN2CCCC2)[C@H](C)c2ccc(F)cc2)c2cccc(OC)c2)c1 [PW357, (R)-N-(1-(4-Fluorophenyl)ethyl)-3,3-bis(3-methoxyphenyl)-N-(2-(pyrrolidin-1-yl)ethyl)prop-2-en-1-amine]
Cytotoxic at 30 μM [1]: Yes at 10 uM
Emax [2]: 0.497

Cc1nnc([C@H](NCC=C(c2ccccc2)c2ccccc2)c2ccccc2)o1 [NY0570, (R)-N-((5-methyl-1,3,4-oxadiazol-2-yl)(phenyl)methyl)-3,3-diphenylprop-2-en-1-amine]
Cytotoxic at 30 μM [1]: No
Emax [2]: 0.397

C[C@H](c1ccc(Cl)cc1)N(CC=C(c1ccccc1)c1ccccc1)CCN1CCN(C)CC1 [NY0518, (R)-N-(1-(4-chlorophenyl)ethyl)-N-(2-(4-methylpiperazin-1-yl)ethyl)-3,3-diphenylprop-2-en-1-amine]
Cytotoxic at 30 μM [1]: Yes
IC50 [2]: 3.8 µM
pEC50 [2]: 5.42
Emax [2]: 0.695
Emax ([2]; listed as 15f): 0.70 ± 0.02

COc1ccc([C@@H](C)N(CC=C(c2ccccc2)c2ccccc2)C(C)=O)cc1 [NY0222, (R)-N-(3,3-diphenylallyl)-N-(1-(4-methoxyphenyl)ethyl)acetamide]
Cytotoxic at 30 μM [1]: Yes
IC50 [2]: 0.25 µM
Emax [2]: 0.587

CCN(CC)CCN(CC=C(c1ccccc1)c1ccccc1)[C@H](C)c1ccc(OC)cc1 [NY0358, (R)-N^1-(3,3-diphenylallyl)-N^2,N^2-diethyl-N^1-(1-(4-methoxyphenyl)ethyl)ethane-1,2-diamine]
Cytotoxic at 30 μM [1]: Yes
IC50 [2]: 1.15 µM and 1.2 µM
Emax [2]: 0.887
Emax ([2]; listed as 12b): 0.89 ± 0.01

C=CC(=O)N1CCN(CCN(CC=C(c2ccccc2)c2ccccc2)[C@H](C)c2ccc(OC)cc2)CC1 [NY0357a, (R)-1-(4-(2-((3,3-diphenylallyl)(1-(4-methoxyphenyl)ethyl)amino)ethyl)piperazin-1-yl)prop-2-en-1-one]
Cytotoxic at 30 μM [1]: Yes
IC50 [2]: 2.55 µM
Emax [2]: 0.697

C[C@H](c1ccc(F)cc1)N(CC=C(c1ccccc1)c1ccccc1)CCn1cc(CN(C)C)nn1 [PW306, (R)-N-(2-(4-((dimethylamino)methyl)-1H-1,2,3-triazol-1-yl)ethyl)-N-(1-(4-fluorophenyl)ethyl)-3,3-diphenylprop-2-en-1-amine]
Cytotoxic at 30 μM [1]: Yes
IC50 [2]: 3.19 µM
Emax [2]: 0.666

O=C(O)[C@H](NCC=C(c1ccccc1)c1ccccc1)c1ccccc1 [NY0555, (R)-2-((3,3-diphenylallyl)amino)-2-phenylacetic acid]
Cytotoxic at 30 μM [1]: No
pEC50 [2]: 5.36
Emax [2]: 0.332
